Several values for one entry are separate records, joined by “and”; a condition that tells them apart may be missing. Identical values can stand only once.
Tests used:
Type in all cases: functional, Homo sapiens
[1] = test system: TERT-RPE1; assay: (§1) Here: values are normalized to the negative (DMSO; defined as 0% autophagy induction) and positive (250nM Torin1; mTOR inhibitor; defined as maximal inducer of autophagy = 100%) control compounds and represented as % of autophagy induction. […] The impact of autophagy induction on cells is complex and depends on the affected target. As such, the magnitude of a phenotype may not be equally mirrored in the %-value of autophagy induction and vice versa. The dynamics of the induction may indicate the mode of activation: e.g. activation via phosphorylation or a signaling cascade may occur fast, while activation via transcription factors may take considerably longer. […] Of note, treatment concentrations may be sub-optimal for specific compounds, leading to false negative annotations.; conditions: Culturing Media DMEM/F12 (1:1), 1 % Penicillin/Streptomycin, 10% Fetal bovin serum Add-On: No, Screening Media Control DMEM/F12 (1:1), Screening Media Samples DMEM/F12 (1:1)
[2] = test system: U2OS; assay: as §1; conditions: Culturing Media DMEM, 1 % Penicillin/Streptomycin, 10% Fetal bovin serum Add-On: No, Screening Media Control DMEM, Screening Media Samples DMEM
[3] = test system: U2OS; assay: as §1; conditions: Culturing Media DMEM, 1 % Penicillin/Streptomycin, 10% Fetal bovin serum Add-On: No, Screening Media Control DMEM, Screening Media Samples DMEM; remark: listed apart in the source
[4] = Compound Concentration 0.5 uM, Timepoint 12 hours, 12 h, 0.5 µM
[5] = Compound Concentration 0.5 uM, Timepoint 24 hours, 24 h, 0.5 µM
[6] = Compound Concentration 0.5 uM, Timepoint 36 hours, 36 h, 0.5 µM
[7] = Compound Concentration 0.5 uM, Timepoint 60 hours, 60 h, 0.5 µM
[8] = Compound Concentration 2 uM, Timepoint 12 hours, 12 h, 2 µM
[9] = Compound Concentration 2 uM, Timepoint 24 hours, 24 h, 2 µM
[10] = Compound Concentration 2 uM, Timepoint 36 hours, 36 h, 2 µM
[11] = Compound Concentration 2 uM, Timepoint 60 hours, 60 h, 2 µM
[12] = Compound Concentration 10 uM, Timepoint 12 hours, 12 h, 10 µM
[13] = Compound Concentration 10 uM, Timepoint 24 hours, 24 h, 10 µM
[14] = Compound Concentration 0.5 uM, Timepoint 12 hours
[15] = Compound Concentration 0.5 uM, Timepoint 24 hours
[16] = Compound Concentration 0.5 uM, Timepoint 36 hours
[17] = Compound Concentration 0.5 uM, Timepoint 60 hours
[18] = Compound Concentration 2 uM, Timepoint 12 hours
[19] = Compound Concentration 2 uM, Timepoint 24 hours
[20] = Compound Concentration 2 uM, Timepoint 36 hours
[21] = Compound Concentration 2 uM, Timepoint 60 hours
[22] = Compound Concentration 10 uM, Timepoint 12 hours
[23] = Compound Concentration 10 uM, Timepoint 24 hours
[24] = Compound Concentration 10 uM, Timepoint 36 hours
[25] = Compound Concentration 10 uM, Timepoint 60 hours

For C[C@@H](NCCc1ccc(O)cc1)[C@@H](O)c1ccc(O)cc1.Cl (relative stereo), the autophagy induction [1, 4] was 5.631% and 0.2084%, the autophagy induction [1, 5] was 6.073% and -4.011% and the autophagy induction [1, 6] was 3.7656% and -2.603%. The autophagy induction [1, 7] was -3.104% and -1.391%, the autophagy induction [1, 8] was 5.905% and 3.931% and the autophagy induction [1, 9] was 4.872% and 1.792%. For the same compound, the autophagy induction [1, 10] was 4.017% and -0.1457%, the autophagy induction [1, 11] was -2.448% and 5.167% and the autophagy induction [1, 12] was -0.5838% and 12.3967%. The autophagy induction [1, 13] was -3.853% and 16.5093%, the autophagy induction [2, 14] was -6.804% and the autophagy induction [2, 15] was -1.218%. It also gave an autophagy induction [2, 16] of -57.9641%, an autophagy induction [2, 17] of 0.9422% and an autophagy induction [2, 18] of -7.529%. It also gave an autophagy induction [2, 19] of -0.8348%, an autophagy induction [2, 20] of -57.3104% and an autophagy induction [2, 21] of -0.1418%. The autophagy induction [2, 22] was -2.903%, the autophagy induction [2, 23] was -0.1533% and the autophagy induction [2, 24] was -57.4385%. The autophagy induction [2, 25] was 1.624%, the autophagy induction [3, 14] was 14.7038% and the autophagy induction [3, 15] was 0.5598%. The autophagy induction [3, 16] was 0.6043%, the autophagy induction [3, 17] was -0.5871% and the autophagy induction [3, 18] was 18.1678%. The autophagy induction [3, 19] was -0.878%, the autophagy induction [3, 20] was -8.358% and the autophagy induction [3, 21] was -12.0518%. The autophagy induction [3, 22] was -0.9523%, the autophagy induction [3, 23] was -16.8429% and the autophagy induction [3, 24] was -21.0427%. The autophagy induction [3, 25] was -26.9578%.
In the case of Cl.Clc1cccc(COc2cncc(N3CCNCC3)n2)c1, the autophagy induction [1, 4] is reported as -4.107% and -8.741%, the autophagy induction [1, 5] is reported as -3.275% and -10.2873% and the autophagy induction [1, 6] is reported as -5.346% and -10.5791%. The autophagy induction [1, 7] was -7.219% and -10.0498%, the autophagy induction [1, 8] was 0.7021% and -1.765% and the autophagy induction [1, 9] was 0.6926% and -5.584%. For the same compound, the autophagy induction [1, 10] was 0.3671% and -11.5088%, the autophagy induction [1, 11] was -2.572% and -13.6901% and the autophagy induction [1, 12] was 10.122% and -0.2214%. The autophagy induction [1, 13] was 9.832% and 0.1054%, the autophagy induction ([1]; Compound Concentration 10 uM, Timepoint 36 hours, 36 h, 10 µM) was 9.982% and -0.986% and the autophagy induction ([1]; Compound Concentration 10 uM, Timepoint 60 hours, 60 h, 10 µM) was 11.761% and 2.73%. The autophagy induction [2, 14] was 7.085%, the autophagy induction [2, 15] was -1.5773% and the autophagy induction [2, 16] was -58.983%. It also gave an autophagy induction [2, 17] of -0.334%, an autophagy induction [2, 18] of 2.459% and an autophagy induction [2, 19] of 2.019%. It also gave an autophagy induction [2, 20] of -56.8827%, an autophagy induction [2, 21] of 0.5358% and an autophagy induction [2, 22] of -3.089%. It also gave an autophagy induction [2, 23] of 5.923%, an autophagy induction [2, 24] of -56.0685% and an autophagy induction [2, 25] of -1.858%. For the same compound, the autophagy induction [3, 14] was -8.837%, the autophagy induction [3, 15] was -13.8803% and the autophagy induction [3, 16] was -7.736%. The autophagy induction [3, 17] was -11.4823%, the autophagy induction [3, 18] was 2.897% and the autophagy induction [3, 19] was 5.801%. For the same compound, the autophagy induction [3, 20] was -1.494%, the autophagy induction [3, 21] was -5.088% and the autophagy induction [3, 22] was 27.4058%. For the same compound, the autophagy induction [3, 23] was 16.7462%, the autophagy induction [3, 24] was 7.428% and the autophagy induction [3, 25] was 3.616%.

— ChEMBL document CHEMBL5724696, “Autophagy assay results for EUbOPEN Chemogenomics Library” (2024)
